Results published in ChEMBL document CHEMBL5331108, “Design and Synthesis of 4-Fluorophenyl-5-methylene-2(5H)-furanone Derivatives as Potent Quorum Sensing Inhibitors” (J Med Chem, 2023).
In brackets after ≈: the same amount, converted by molar mass. Activity calls are given as the source filed them. No cut-off for these calls is given here.

Assays:
Pseudomonas aeruginosa [1] = assay: Antibacterial activity against Pseudomonas aeruginosa 27853 assessed as inhibition of bacterial growth at 256 ug/ml measured after 25 hrs by absorbance based assay; format: functional, organism-based; settings: dose 256.0 µg/ml
Bacillus subtilis = assay: Antibacterial activity against penicillin-susceptible Bacillus subtilis ATCC9372 assessed as inhibition of bacterial growth incubated for 20 hrs by CLSI protocol based microdilution method; format: functional
Bacillus pumilus = assay: Antibacterial activity against penicillin-susceptible Bacillus pumilus CMCC63202 assessed as inhibition of bacterial growth incubated for 20 hrs by CLSI protocol based microdilution method; format: functional
Staphylococcus aureus [2] = assay: Antibacterial activity against erthromycin-susceptible Staphylococcus aureus ATCC25923 assessed as inhibition of bacterial growth incubated for 20 hrs by CLSI protocol based microdilution method; format: functional
Staphylococcus aureus [3] = assay: Antibacterial activity against methicillin-resistant Staphylococcus aureus ATCC43300 assessed as inhibition of bacterial growth incubated for 20 hrs by CLSI protocol based microdilution method; format: functional
Pseudomonas aeruginosa [4] = assay: Antibacterial activity against penicillin-susceptible Pseudomonas aeruginosa ATCC27853 assessed as inhibition of bacterial growth incubated for 20 hrs by CLSI protocol based microdilution method; format: functional
Escherichia coli = assay: Antibacterial activity against penicillin-susceptible Escherichia coli ATCC25922 assessed as inhibition of bacterial growth incubated for 20 hrs by CLSI protocol based microdilution method; format: functional
Pseudomonas aeruginosa [5] = assay: Antibacterial activity against wild type Pseudomonas aeruginosa […] CGMCC1.12483 assessed as inhibition of bacterial growth incubated for 20 hrs by CLSI protocol based microdilution method; format: functional
[6] = Inhibition of quorum sensing system in Pseudomonas aeruginosa PAO1 assessed as inhibition of pyocyanin production at 102.4 ug/ml incubated for 18 hrs by absorbance based assay; settings: dose 102.4 µg/ml
Pseudomonas aeruginosa [7] = assay: Antibacterial activity against Pseudomonas aeruginosa PAO1 assessed as inhibition of bacterial growth at 256 ug/ml measured after 25 hrs by absorbance based assay; format: functional, organism-based; settings: dose 256.0 µg/ml
[8] = Inhibition of quorum sensing system in Pseudomonas aeruginosa PAO1 assessed as inhibition of protease activity at 102.4 ug/ml incubated for 24 hrs by absorbance based assay; settings: dose 102.4 µg/ml
[9] = Inhibition of quorum sensing system in Pseudomonas aeruginosa PAO1 assessed as inhibition of rhamnolipid production at 102.4 ug/ml incubated for 24 hrs by absorbance based assay; settings: dose 102.4 µg/ml
Pseudomonas aeruginosa [10] = assay: Inhibition of biofilm formation in Pseudomonas aeruginosa PAO1 at 32 ug/ml incubated for 20 hrs by crystal violet staining based analysis; format: functional; settings: dose 32.0 µg/ml
[11] = Hemolytic activity in mouse red blood cells assessed as hemolysis rate at 512 ug/ml incubated for 1 hrs by microplate reader analysis relative to control; format: toxicity, cell-based, Erythrocyte; settings: red blood cells (erythrocytes), at 512 µg/mL, read-out: Activity
Pseudomonas aeruginosa [12] = assay: Synergistic antibacterial activity against Pseudomonas aeruginosa 27853 assessed as inhibition of bacterial growth at 1 to 128 ug/ml incubated for 24 hrs by absorbance based microplate reader analysis; format: functional, organism-based; settings: dose 1-128 µg/ml
Pseudomonas aeruginosa [13] = assay: Synergistic antibacterial activity against Pseudomonas aeruginosa 27853 assessed as inhibition of bacterial growth at 1 to 256 ug/ml incubated for 24 hrs in the presence of Ciprofloxacin by absorbance based microplate reader analysis; format: functional, organism-based; settings: dose 1-256 µg/ml
Pseudomonas aeruginosa [14] = assay: Synergistic antibacterial activity against Pseudomonas aeruginosa 27853 assessed as inhibition of bacterial growth by measuring fold change in ciprofloxacin at 1 to 256 ug/ml incubated for 24 hrs by absorbance based microplate reader analysis; format: functional; settings: dose 1-256 µg/ml
Pseudomonas aeruginosa [15] = assay: Synergistic antibacterial activity against Pseudomonas aeruginosa 27853 assessed as inhibition of bacterial growth incubated for 24 hrs in the presence of Clarithromycin by absorbance based microplate reader analysis; format: functional, organism-based; settings: dose 1-256 µg/ml
Pseudomonas aeruginosa [16] = assay: Synergistic antibacterial activity against Pseudomonas aeruginosa PAO1 assessed as inhibition of bacterial growth at 1 to 256 ug/ml incubated for 24 hrs in the presence of Clarithromycin by absorbance based microplate reader analysis; format: functional, organism-based; settings: dose 1-256 µg/ml
Pseudomonas aeruginosa [17] = assay: Synergistic antibacterial activity against Pseudomonas aeruginosa PAO1 assessed as inhibition of bacterial growth at 1 to 256 ug/ml incubated for 24 hrs in the presence of ciprofloxacin by absorbance based microplate reader analysis; format: functional, organism-based; settings: dose 1-256 µg/ml
Pseudomonas aeruginosa [18] = assay: Inhibition of biofilm formation in Pseudomonas aeruginosa PAO1 assessed as effect on biofilm morphology at 102.4 ug/ml incubated for 24 hrs by scanning electron microscopic analysis; format: functional, organism-based; settings: dose 102.4 µg/ml
Pseudomonas aeruginosa [19] = assay: Synergistic antibacterial activity against Pseudomonas aeruginosa PAO1 assessed as inhibition of bacterial growth at highest concentration incubated for 24 hrs in the presence of ciprofloxacin by absorbance based microplate reader analysis relative to control; format: functional

Compound	Activity (Pseudomonas aeruginosa [1])	MIC (Bacillus subtilis)	MIC (Bacillus pumilus)	MIC (Staphylococcus aureus [2])	MIC (Staphylococcus aureus [3])	MIC (Pseudomonas aeruginosa [4])	MIC (Escherichia coli)	MIC (Pseudomonas aeruginosa [5])	inhibition [6]	Activity (Pseudomonas aeruginosa [7])	inhibition [8]	inhibition [9]	inhibition (Pseudomonas aeruginosa [10])	hemolysis at 1 h, 512 ug/ml [11]	Activity (Pseudomonas aeruginosa [13])	Activity (Pseudomonas aeruginosa [15])	Activity (Pseudomonas aeruginosa [16])	Activity (Pseudomonas aeruginosa [17])	further results
C=C1OC(=O)C(CNC(=O)CCCCCCCCCC)=C1c1ccc(F)cc1	inactive	> 512 µg/mL	> 512 µg/mL	> 512 µg/mL	> 512 µg/mL	> 512 µg/mL	> 512 µg/mL	> 512 µg/mL	44.7%	inactive	Active	Active	inactive						
C=C1OC(=O)C(CNC(=O)c2ccc(Br)cc2)=C1c1ccc(F)cc1	inactive	16 µg/mL (≈ 39.8 µM)	> 512 µg/mL	> 512 µg/mL	8 µg/mL (≈ 19.9 µM)	> 512 µg/mL	> 512 µg/mL	> 512 µg/mL	34.7%	inactive	8.6%	48.5%	inactive	> 2.5%	Active	Dose-Dependent Effect	Active	Active	Activity (Pseudomonas aeruginosa [12]): Active; fold change (FC) (Pseudomonas aeruginosa [14]): >=1.5
C=C1C(c2ccc(F)cc2)=C(CNC(=O)c2ccc(C)cc2)C(=O)N1c1ccccc1C	inactive	> 512 µg/mL	512 µg/mL (≈ 1200 µM)	> 512 µg/mL	> 512 µg/mL	> 512 µg/mL	> 512 µg/mL	512 µg/mL (≈ 1200 µM)	38.3%	inactive	8.6%	45.9%	inactive	< 2.5%	Active	Dose-Dependent Effect	Active	Active	fold change (FC) (Pseudomonas aeruginosa [14]): >=1.5
C=C1OC(=O)C(CNC(=O)c2cccc(OC)c2)=C1c1ccc(F)cc1	inactive	> 512 µg/mL	> 512 µg/mL	> 512 µg/mL	32 µg/mL (≈ 90.6 µM)	> 512 µg/mL	> 512 µg/mL	> 512 µg/mL	Active	inactive	8.6%	Active	Active		Active	Dose-Dependent Effect	Active	Active	
C=C1OC(=O)C(CNC(=O)c2ccc(C)cc2)=C1c1cccc(Cl)c1	inactive	> 512 µg/mL	> 512 µg/mL	> 512 µg/mL	> 512 µg/mL	> 512 µg/mL	> 512 µg/mL	> 512 µg/mL	Active	inactive	Active	Active	inactive						
O=C1C=C(Br)/C(=C/Br)O1	Active	64 µg/mL (≈ 252 µM)	256 µg/mL (≈ 1010 µM)	32 µg/mL (≈ 126 µM)	128 µg/mL (≈ 504 µM)	256 µg/mL (≈ 1010 µM)	256 µg/mL (≈ 1010 µM)	128 µg/mL (≈ 504 µM)		Active		44.9%	Active						
C=C1OC(=O)C(CNC(=O)Cc2ccccc2)=C1c1ccc(F)cc1		> 512 µg/mL	> 512 µg/mL	> 512 µg/mL	> 512 µg/mL	> 512 µg/mL	> 512 µg/mL	> 512 µg/mL	inactive										
CC[C@H]1OC(=O)[C@H](C)[C@@H](O[C@H]2C[C@@](C)(OC)[C@@H](O)[C@H](C)O2)[C@H](C)[C@@H](O[C@@H]2O[C@H](C)C[C@H](N(C)C)[C@H]2O)[C@](C)(O)C[C@@H](C)CN(C)[C@H](C)[C@@H](O)[C@]1(C)O [AZITHROMYCIN]		0.25 µg/mL (≈ 0.334 µM)	0.25 µg/mL (≈ 0.334 µM)	0.25 µg/mL (≈ 0.334 µM)	256 µg/mL (≈ 342 µM)	16 µg/mL (≈ 21.4 µM)	128 µg/mL (≈ 171 µM)	256 µg/mL (≈ 342 µM)											inhibition (Pseudomonas aeruginosa [18]): inactive
C=C1OC(=O)C(CNC(=O)CCCCCCCCCCC)=C1c1ccc(F)cc1	inactive	> 512 µg/mL	> 512 µg/mL	> 512 µg/mL	> 512 µg/mL	> 512 µg/mL	> 512 µg/mL	> 512 µg/mL	36.5%	inactive	Active	Active	Active						
C=C1OC(=O)C(CNC(=O)c2ccc(Cl)cc2)=C1c1ccc(F)cc1	inactive	> 512 µg/mL	> 512 µg/mL	> 512 µg/mL	> 512 µg/mL	> 512 µg/mL	> 512 µg/mL	> 512 µg/mL	Active	inactive	8.6%	47.3%	Active	> 2.5%	Active	Dose-Dependent Effect	Active	Active	
C=C1OC(=O)C(CNC(=O)CCc2ccccc2)=C1c1ccc(F)cc1		64 µg/mL (≈ 182 µM)	> 512 µg/mL	> 512 µg/mL	16 µg/mL (≈ 45.5 µM)	> 512 µg/mL	> 512 µg/mL	512 µg/mL (≈ 1460 µM)	inactive										
C=C1C(c2ccc(F)cc2)=C(CNC(=O)c2ccc(C)cc2)C(=O)N1c1cccc(C)c1	inactive	> 512 µg/mL	512 µg/mL (≈ 1200 µM)	> 512 µg/mL	> 512 µg/mL	> 512 µg/mL	> 512 µg/mL	512 µg/mL (≈ 1200 µM)	35.2%	inactive	8.6%	57.1%	Active	> 2.5%	Active	Dose-Dependent Effect		Active	fold change (FC) (Pseudomonas aeruginosa [14]): >=1.5
C=C1OC(=O)C(CNC(=O)c2ccc(OC)cc2)=C1c1ccc(F)cc1	inactive	128 µg/mL (≈ 362 µM)	32 µg/mL (≈ 90.6 µM)	32 µg/mL (≈ 90.6 µM)	64 µg/mL (≈ 181 µM)	> 512 µg/mL	> 512 µg/mL	> 512 µg/mL	44%	inactive	8.6%	Active	Active		Active	Dose-Dependent Effect	Active	Active	inhibition (INH) (Pseudomonas aeruginosa [19]): 90.53%
C=C1OC(=O)C(CNC(=O)c2ccc(C)cc2)=C1c1ccc(OC)cc1	inactive	> 512 µg/mL	> 512 µg/mL	> 512 µg/mL	> 512 µg/mL	> 512 µg/mL	> 512 µg/mL	> 512 µg/mL	Active	inactive	Active	Active	inactive						
C=C1C(c2ccc(F)cc2)=C(CNC(=O)c2ccc(C)cc2)C(=O)N1c1ccc(C)cc1	inactive	512 µg/mL (≈ 1200 µM)	512 µg/mL (≈ 1200 µM)	> 512 µg/mL	> 512 µg/mL	> 512 µg/mL	> 512 µg/mL	512 µg/mL (≈ 1200 µM)	Active	inactive	8.6%	49.7%	inactive	> 2.5%	Active	Dose-Dependent Effect		Active	fold change (FC) (Pseudomonas aeruginosa [14]): >=1.5
